According to patent EP1449521A1, “Use of PVP-iodine liposomes for treatment of atopic dermatitis” (EURO-CELTIQUE S.A., priority 2003, dated 2004):

Tested on: Human ciliated epithelium cells
Procedure: A cytotoxic damage of these cells which would cause a restriction of the mucociliar clearance can be determined by a detectable decrease of the ciliary vibration.
Human ciliated epithelium cells were analysed by an in-vitro method which enables the determination of the ciliary activity or ciliary vibration. The corresponding cells were exposed and incubated with 100 je.1 test substance at a temperature of 37 C. After an incubation period of 5 minutes the ciliary vibration was measured.
By using this in-vitro method a nutriant solution (Dulbeco) as standard, a 0.2% chlorohexidine solution (typical antiseptic agent), conventional polyvidone iodine solutions (Betaisodona) of different concentrations (5.0%, 2.5% and 1.25% PVP-iodine) and a liposomal solution containing 4.5% of PVP-iodine were tested.

## [H]/N=C(\N/C(=N/[H])NCCCCCCNC(=N)NC(=N)Nc1ccc(Cl)cc1)Nc1ccc(Cl)cc1 [chlorohexidine]
  ciliary vibration: decrease of the measured ciliary vibration in comparison to the standard
